Laboratory results from patent US20110003753A1, “COMPOSITIONS AND METHODS FOR DISRUPTING THE FUNCTION OF THE TRANSCRIPTIONAL REPRESSOR COMPONENT Sin3A-PAH2 DOMAIN TO INDUCE DIFFERENTIATION AND GROWTH INHIBITION IN BREAST CANCER” (SAMUEL WAXMAN CANCER RESEARCH FOUNDATION, priority 2009, published 2011).

How the values were obtained:
[1] = test system: MDA-MB-231 cells; experiment: Three-dimensional morphogenesis assay in Matrigel; assay type: cell-based, human; conditions: 5 μM peptide; Matrigel 3D culture; colonies counted after 10 days of treatment
Procedure: FIG. 3: A. Morphogenesis in 3D cultures in Matrigel. MDA-MB-231 and MMTV-Myc cells expressing SID or the double mutant were cultured in 3D-Matrigel for 14 days. […] B. Reversion of the invasive phenotype of the MDA-MB-231 cells in Matrigel 3D cultures. Upper panel indicates change in numbers of invasive versus non invasive colonies (as indicated in crosshatched and non-crosshatched bars, respectively) in the presence of different concentrations (as indicated) of cell penetrating SID or SID^SCR (scrambled control) peptide. The colonies were counted after 10 days of treatment with a medium containing fresh peptide changed every 24 hours. […] The reduction in invasive phenotype was quantified by counting 5 low magnification fields per well done in triplicates (upper panel). The p value was calculated using the unpaired Student t test.
3D cultures of MDA-MB-231 and MMTV-Myc cells stably transfected with pEGFP-SID, pEGFP-SID2Mut or the parent vector pEGFP-N3 were prepared as described by Debnath et al. (Debnath et al2003). Briefly, […] of growth factor depleted Matrigel (BD Biosciences) was applied on 8-well multichamber slides (BD Biosciences) and incubated at 37° C. for 30 minutes. Once the Matrigel solidified 5×10^3 cells were seeded on top of the gels in assay medium containing 2% Matrigel and 20 ng/ml […]. Growth medium was changed daily for 14 days. Once colony formation was evident, the SID or the scramble control peptide was added to the MDA-MB-231 parental cells in the medium starting at day 3. The morphology of the colonies was determined by confocal microscopy. Induction of apoptosis was determined by staining colonies with activated caspase-3 antibody (BD Transduction Labs) and cell polarization by staining with anti-GM130 antibody (BD Transduction Labs). Cell nuclei were visualized by DAPI (Sigma) staining. […]

[2] = test system: Sin3B and MAD; experiment: Mammalian two-hybrid assay, GAL4 DBD-Sin3B and VP16AD-MAD in 293T cells; assay type: cell-based; conditions: 15 μM peptide applied to the cell culture medium
Text: FIG. 2: SID decoy peptide blocks interactions between Sin3 PAH2 and MAD and interferes with recruitment of members of the Sin3 co-repressor complex. A. GST pull-down of MAD by the Sin3A PAH2 domain is blocked by SID peptide. Sin3A PAH2 domain (amino acids 306-450) was expressed in E. coli as a GST fusion and used in a pull down assay for in vitro interaction with 35S-methionine labeled MAD (left panel) or MAD immunoprecipitated from MDA-MB-231 cell lysates (right panel). 25% of input is shown for in vitro translated MAD and 10% of input for immunoprecipitated MAD (input). Assays were performed using 15 μM Tat-SID or Tat-SID^SCR peptide unless otherwise indicated. […] 293T cells were transfected with GAL4^uas×5-Tk-Luc reporter together with mammalian two-hybrid vectors expressing a fusion of Sin3B with GAL4 DNA binding domain (GAL4^DBD) and fusions of MAD and HDAC1 (columns 5-12 and 14-21, respectively) with VP16 activation domain (VP16^AD), as well as SID expression vectors, as indicated. […]
24 hours prior to transfection, 293T cells were plated at 50-60% confluence on 48-well plates. […] 48 hours post-transfection luciferase activity was measured using the Dual Luciferase assay system (Promega) on a Mithras LB940 plate reader (Berthold Technologies). […]

[3] = test system: MDA-MB-231 cells transfected with SID; experiment: Proliferation assay (MTT) for ERα and RAR activation; assay type: cell-based, human; conditions: SID-transfected MDA-MB-231; for growth inhibition (MTT): daily for 48 hrs
Text: FIG. 5: A. Schematic representations of the promoters and 5′ untranslated regions (5′UTR) of CDH1 and ESR1 used in this study. Positions of CpG dinucleotides are indicated by grey ticks and the transcription initiation sites are represented by black arrows. The relative positions of primer pairs used to PCR amplify immunoprecipitated DNA from ChIP analysis and bisulfite-modified DNA are also indicated. B. H3K4me3 levels on the CDH1 and ESR1 promoter regions increase dramatically in response to SID. ChIP analysis was performed with chromatin from wild type or stably transfected MDA-MB-231 cells as indicated. Cross-linked protein-DNA complexes were immunoprecipitated with an anti-trimethyl H3K4 antibody and amplified by real-time PCR. Results are shown as percentage of input DNA. The RPL30 housekeeping gene is shown as a control. C. Real-time PCR analysis of CDH1 and ESR1 gene expression. Values are shown as molecules per μg total RNA and were derived from the ΔCt between the GAPDH housekeeping gene and the gene of interest. The amount of GAPDH molecules per μg total RNA was determined by absolute quantification. D. The CDH1 and ESR1 promoters undergo demethylation in response to SID. Following bisulfite modification of wild type or stably transfected MDA-MB-231 cells as indicated, specifically amplified PCR products were sequenced using primers corresponding to the promoter/5′UTR of ESR1. Positions of CpG dinucleotides are indicated by grey ticks and the transcription initiation sites are indicated by black arrows. […] Unmethylated CpGs are by represented open circles. CpG positions are shown relative to transcription initiation site. E. Functional assays for ERα and RAR activation. […]
For activation of RARs […] ATRA (all-trans-retinoic acid, pan-RAR agonist) or 100 nM Am580 (retinoibeozoic acid, RARα-specific agonist) was used daily for 48 hours. Cell proliferation was determined by MTT (Thiazolyl Blue Tetrazolium Bromide) colorimetric assay following standard protocols (Invitrogen). The optical density (OD) of reduced MTT was assessed at 570 nm versus 620/630 nm after 4 hr at 37° C. […]

[4] = molecular target: GAL4 DBD-Sin3B (fusion of Sin3B with GAL4 DNA binding domain) (UniProt P04386); experiment: cell-based or functional assay
Chain of GAL4 DBD-Sin3B (fusion of Sin3B with GAL4 DNA binding domain) (P04386 1-147): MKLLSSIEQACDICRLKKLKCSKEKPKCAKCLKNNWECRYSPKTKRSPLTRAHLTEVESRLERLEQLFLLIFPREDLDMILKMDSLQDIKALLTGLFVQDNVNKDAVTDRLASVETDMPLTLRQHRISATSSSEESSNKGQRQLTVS

Compound: YGRKKRRQGGGEQRARRIMERLLEYNMVADL [scrambled control, reference compound]
- decrease in number of colonies with invasive phenotype [1]: did not exert this effect
- increase in luciferase activity compared to GAL4 DBD-Sin3B and VP16AD-MAD co-expression [2]: nor addition of scrambled control peptide led to an increase in luciferase activity

Compound: CC/C(=C(\c1ccccc1)c1ccc(OCCN(C)C)cc1)c1ccccc1 [tamoxifen]
- prevention of E2 growth stimulation (MTT) ([3]; 2.5 μM tamoxifen plus E2): prevention of E2 growth stimulation

Compound: FLAG-tagged SID (6.6 kDa), expressed from pSID (peptide)
- relative luciferase activity, mammalian two-hybrid with GAL4 DBD-Sin3B and VP16AD-MAD (fold increase) [4]: 2

Compound: CC1=C(/C=C/C(C)=C/C=C/C(C)=C/C(=O)O)C(C)(C)CCC1 [ATRA, all-trans-retinoic acid]
- growth inhibition (MTT) ([3]; 1 uM): significant growth inhibition

Compound: TetR-SID fusion (28.4 kDa), expressed from pTHE
- relative luciferase activity, mammalian two-hybrid with GAL4 DBD-Sin3B and VP16AD-MAD (fold increase) [4]: 2

Compound: AM580
- growth inhibition (MTT) ([3]; 100 nM): significant growth inhibition

Compound: VP16AD-MAD (VP16 activation domain as in-frame fusion with full-length MAD) (from UniProt Q05195 1-221)
- relative luciferase activity, mammalian two-hybrid (GAL4UASx5-Tk-Luc reporter, 293T cells) (fold decrease) [4]: 5
